From patent US20060035869A1, “Inhibitors of epoxide hydrolases for the treatment of hypertension” (THE REGENTS OF THE UNIVERSITY OF CALIFORNIA OFFICE OF …, priority 1999, published 2006)
Like-named read-outs stand apart in the source and are kept apart here.

Key:
[1] = molecular target: T1, mouse sEH (Mus musculus, UniProt P34914); test: Inhibition of recombinant mouse soluble EH, spectrophotometric NEP2C assay; type: biochemical
T1 construct: made in house; host or cells: baculovirus expression system (insect cells)
T1 sequence (P34914 1-554): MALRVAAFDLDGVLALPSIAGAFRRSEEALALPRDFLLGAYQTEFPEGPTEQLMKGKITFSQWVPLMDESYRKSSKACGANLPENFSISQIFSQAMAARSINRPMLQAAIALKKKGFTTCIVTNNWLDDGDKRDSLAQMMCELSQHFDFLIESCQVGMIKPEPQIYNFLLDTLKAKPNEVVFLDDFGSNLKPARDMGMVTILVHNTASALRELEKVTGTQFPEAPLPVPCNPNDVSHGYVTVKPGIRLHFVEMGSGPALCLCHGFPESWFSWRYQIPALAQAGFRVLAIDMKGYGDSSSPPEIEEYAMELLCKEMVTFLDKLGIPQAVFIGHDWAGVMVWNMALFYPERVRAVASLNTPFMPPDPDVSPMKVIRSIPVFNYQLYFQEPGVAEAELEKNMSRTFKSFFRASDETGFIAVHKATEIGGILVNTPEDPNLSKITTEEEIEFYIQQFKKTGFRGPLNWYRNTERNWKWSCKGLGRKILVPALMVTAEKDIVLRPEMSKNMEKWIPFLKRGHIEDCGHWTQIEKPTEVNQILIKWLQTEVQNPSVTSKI
Experimental: (§1) Recombinant mouse sEH (MsEH) and human sEH (HsEH) were produced in a baculovirus expression system as previously reported. […] The expressed proteins were purified from cell lysate by affinity chromatography. […] Protein concentration was quantified using the Pierce BCA assay using bovine serum albumin as the calibrating standard.
(§2) The mixture was incubated at 30° C. for 5 minutes. […] Assays were performed in quadruplicate.

[2] = molecular target: T2, Rat mEH (Rattus norvegicus, UniProt P07687); test: Inhibition of mammalian microsomal EH, 3H-cis-stilbene oxide assay; type: biochemical
T2 sequence (P07687 1-455): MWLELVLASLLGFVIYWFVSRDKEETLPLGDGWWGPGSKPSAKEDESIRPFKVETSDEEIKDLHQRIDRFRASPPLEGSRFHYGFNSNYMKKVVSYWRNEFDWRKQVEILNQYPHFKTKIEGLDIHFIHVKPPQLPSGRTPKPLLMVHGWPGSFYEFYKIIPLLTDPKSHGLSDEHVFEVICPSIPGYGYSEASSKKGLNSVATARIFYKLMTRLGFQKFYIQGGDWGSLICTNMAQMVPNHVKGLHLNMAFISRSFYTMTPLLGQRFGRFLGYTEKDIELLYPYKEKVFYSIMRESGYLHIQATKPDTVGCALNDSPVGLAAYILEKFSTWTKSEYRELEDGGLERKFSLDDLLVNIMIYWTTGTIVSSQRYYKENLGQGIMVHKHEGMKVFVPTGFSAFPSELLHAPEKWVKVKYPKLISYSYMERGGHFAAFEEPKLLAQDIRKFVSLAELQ
Experimental: as §2

[3] = tested on: leukotoxin/isoleukotoxin induced death; test: Protection of mice against leukotoxin/isoleukotoxin induced death; type: in vivo, mouse; settings: Swiss Webster mice, 400 mg/kg i.p. in corn oil 30 minutes before leukotoxin/isoleukotoxin methyl esters 700 mg/kg i.v.
Experimental: Male Swiss Webster mice (25-28 g) were purchased from Simonsen, Gilroy, Calif. The animals had free access to water and food. […] After 30 minutes of the pretreatment, the mice were treated intravenously through the tail vein with a 1:1 mixture of leukotoxin/isoleukotoxin methyl esters in ethanol (700 mg/kg, 1.0 ml/kg).
The mice died of respiratory distress after exposure to leukotoxin/isoleukotoxin. The lethal reactions took place sequentially with accelerated breathing, opening of the mouth to assist breathing, and bloody fluid running from the nose.

[4] = molecular target: T3, human sEH (Homo sapiens, UniProt P34913); test: Inhibition of recombinant human soluble EH, spectrophotometric NEP2C assay; type: biochemical; settings: recombinant enzyme, NEP2C 40 μM, 30° C., pH 7.4
T3 construct: made in house; host or cells: baculovirus expression system (insect cells)
T3 sequence (P34913 1-555): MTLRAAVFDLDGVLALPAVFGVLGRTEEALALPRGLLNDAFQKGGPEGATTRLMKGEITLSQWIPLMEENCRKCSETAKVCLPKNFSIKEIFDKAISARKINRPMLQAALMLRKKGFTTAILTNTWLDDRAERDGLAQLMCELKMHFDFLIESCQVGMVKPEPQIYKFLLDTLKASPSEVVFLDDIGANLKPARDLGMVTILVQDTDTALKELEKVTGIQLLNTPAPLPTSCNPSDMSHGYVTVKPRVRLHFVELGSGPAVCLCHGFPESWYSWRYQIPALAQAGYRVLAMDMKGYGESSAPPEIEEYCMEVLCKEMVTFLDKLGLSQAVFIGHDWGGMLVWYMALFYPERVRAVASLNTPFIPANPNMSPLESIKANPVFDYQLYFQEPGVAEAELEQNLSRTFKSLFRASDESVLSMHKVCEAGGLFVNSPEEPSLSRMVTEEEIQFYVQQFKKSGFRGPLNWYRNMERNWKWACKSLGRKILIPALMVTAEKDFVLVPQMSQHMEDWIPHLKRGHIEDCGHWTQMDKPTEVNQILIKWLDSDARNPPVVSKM
Experimental: as §1, §2

[5] = molecular target: T4, M secta mEH (Manduca sexta, UniProt Q25489); test: Inhibition of recombinant insect microsomal EH; type: biochemical
T4 sequence (Q25489 1-462): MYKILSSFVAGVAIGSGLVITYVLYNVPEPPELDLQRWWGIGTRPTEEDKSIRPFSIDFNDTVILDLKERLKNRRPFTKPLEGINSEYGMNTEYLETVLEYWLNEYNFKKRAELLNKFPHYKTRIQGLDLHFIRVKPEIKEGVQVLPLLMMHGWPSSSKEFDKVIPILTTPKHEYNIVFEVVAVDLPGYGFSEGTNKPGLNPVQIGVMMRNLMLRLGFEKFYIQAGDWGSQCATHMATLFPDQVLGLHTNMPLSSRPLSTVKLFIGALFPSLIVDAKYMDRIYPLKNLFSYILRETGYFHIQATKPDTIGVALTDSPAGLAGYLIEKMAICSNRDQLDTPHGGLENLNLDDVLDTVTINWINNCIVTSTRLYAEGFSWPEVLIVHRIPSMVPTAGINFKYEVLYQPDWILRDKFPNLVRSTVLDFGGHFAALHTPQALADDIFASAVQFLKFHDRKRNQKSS

[6] = recombinant enzyme, NEP2C 40 μM, 30° C., pH 7.4, read-out: Mouse sEH IC50

| Compound | IC50 [2] [µM] | IC50 [4] [µM] | also measured |
| --- | --- | --- | --- |
| C(=NC1CCCCC1)=NC1CCCCC1 [Compound 1, dicyclohexylcarbodiimide] |  |  | effect of time on the inhibition of mouse sEH ([1]; FIG. 1): increased with the time |
| O=C(NC1CCCCC1)NC1CCCCC1 [Compound 2, N,N′-dicyclohexylurea] | > 500 |  | animal death induced by leukotoxin/isoleukotoxin [3]: either blocked the animal death induced by leukotoxin/isoleukotoxin or lengthened the lives of the mice |
| O=C(NC1CCCCC1)SC1CCCCC1 [Compound 11] |  | 7.5 ± 0.4 | IC50 [1]: 3.8 ± 0.01 µM |
| S=C(NC1CCCCC1)NC1CCCCC1 [Compound 12] |  | 20 ± 1 | IC50 [1, 6]: 99 ± 5 µM |
| CCCCCCCCCCNC(=O)NC [Compound 17] |  |  | IC50 [5]: 28 ± 2 µM |
| CCCCCCCCCCNC(=O)NCC [Compound 19] |  |  | IC50 [5]: 4.8 ± 0.4 µM |
| CCCCCCCCCCNC(=O)NCC [Compound 28] | 8.3 ± 0.4 | 48 ± 3 | IC50 [1, 6]: 5.8 ± 0.4 µM |
| CNC(=O)Nc1ccc(Cl)c(Cl)c1 [Compound 32] | > 500 | 47 ± 2 | IC50 [1, 6]: 108 ± 4 µM |
| O=C(NCC1CCCCC1)NC1CCCCC1 [Compound 57] | > 500 |  |  |
| O=C(NC1CCCCCCC1)NC1CCCCC1 [Compound 58] | > 500 |  | IC50 [5]: 3.9 ± 0.4 µM |
| CCCCCCCCNC(N)=O [Compound 101] | 73 ± 1 | 5.5 ± 0.1 | IC50 [1, 6]: 1.04 ± 0.02 µM |
| O=C(NCCCc1ccccc1)NC1CCCCC1 [Compound 104] | > 500 |  |  |
| O=C(Nc1ccc(Oc2ccccc2)cc1)NC1CCCCC1 [Compound 140] | > 500 |  |  |
| [O-][S+](Cc1ccccc1)Cc1ccccc1 [Compound 161] | > 500 | 289 ± 7 | IC50 [1]: 156 ± 3 µM |
| CCOC(CCCNC(=O)Nc1cccc(Cl)c1)OCC [Compound 167] | > 500 |  |  |
| CCCCCCCCNC(=O)NC1CCCCC1 [Compound 168] | > 500 |  |  |
| O=C(NCC1CCCCC1)Nc1ccc2ccccc2c1 [Compound 169] | > 500 |  |  |
| CCCCCCCCCCNC(=O)Nc1cccc(Cl)c1 [Compound 172] | > 500 |  |  |
| O=C(NCC1CCCCC1)Nc1cccc(Cl)c1 [Compound 179] | > 500 |  |  |
| CC(C)c1ccc(NC(=O)NCC2CCCCC2)cc1 [Compound 180] | > 500 |  |  |
| O=C(NCc1ccc(Cl)cc1)NC1CCCCC1 [Compound 193] | > 500 |  |  |
| [H]/N=C(\N/C(=N/[H])NCCCCCCNC(=N)NC(=N)Nc1ccc(Cl)cc1)Nc1ccc(Cl)cc1 [Compound 204] |  | 49 ± 7 | IC50 [1, 6]: > 250 µM |
| CC1CCC(C(C)C)C(OC(=O)NC2CCCCC2)C1 (stereo not shown) [Compound 225] | > 500 | 1.05 ± 0.03 |  |
| CCCCCCCCCCCCNC(=O)NCCF [Compound 238] | 9.9 ± 0.2 | 57 ± 1 | IC50 [1, 6]: 50 ± 5 µM |
| CCCCCCCCCCN [Compound 303] | 2.67 ± 0.07 | > 500 | IC50 [1, 6]: > 500 µM |
